Experimental data from the supplement of paper PMC10307832.

compound: CC1=CC(=CC=C1)NC2=NC(=CS2)C3=CC=NC=C3 + Nc1ncn([C@H]2C[C@H](O)[C@@H](CO)O2)c(=O)n1 [Decitabine] (partner 2 µM); assay: relative viability (nuclei count vs DMSO), 5 days (fraction); higher = more cells survive; details: first compound 8 µM
Outline: (§1)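 Dosing by pin tool came one day after lung cancer cell lines were seeded in 1536-well plates, using either one drug or a fixed anchor-drug dose plus five library-drug doses (not always all listed) in √10 steps. After 5 days, nuclei were counted on 4× images. Relative viability is treated-well nuclei count divided by vehicle-well nuclei count, and values are medians of duplicate plates.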

Cell Line | relative viability
NCI-H1648 | 0.376
NCI-H1395 | 0.761
NCI-H1944 | 0.389
NCI-H2170 | 0.361
ABC-1 | 0.626
SK-MES-1 | 0.378

compound: CC1=CC(=CC=C1)NC2=NC(=CS2)C3=CC=NC=C3 + CC(C)C[C@H](NC(=O)[C@H](Cc1ccccc1)NC(=O)c1cnccn1)B(O)O [Bortezomib] (partner 0.002 µM); assay: as above; details: first compound 0.08 µM
Outline: as §1

Cell Line | relative viability
NCI-H838 | 0.658
NCI-H1651 | 0.939
EBC-1 | 0.434
NCI-H1734 | 0.906
NCI-H2009 | 0.829
PC-14 | 0.966
LCLC-103H | 0.995
NCI-H596 | 0.845
NCI-H2228 | 0.892
EMC-BAC-2 | 0.982
NCI-H2087 | 0.708
Calu-6 | 0.951
HCC-366 | 0.875
NCI-H1703 | 0.241
NCI-H647 | 0.826
NCI-H2126 | 1.06
H3255 | 0.664
COR-L23 | 1.01
COR-L 105 | 0.7
IA-LM | 0.803
LOU-NH91 | 0.446
ChaGo-K-1 | 0.866
NCI-H3122 | 1.03
HOP-62 | 0.673
NCI-H1299 | 0.973
CAL-12T | 0.757
NCI-H1563 | 0.794
ABC-1 | 0.316

same assay, conditions: first compound 0.253 µM

Cell Line | relative viability
NCI-H838 | 0.742
NCI-H1651 | 0.923
EBC-1 | 0.463
NCI-H1734 | 0.874
NCI-H2009 | 0.894
LU99A | 1.09
PC-14 | 0.899
LCLC-103H | 1.12
NCI-H596 | 1.08
NCI-H2228 | 0.761
EMC-BAC-2 | 1.04
NCI-H2087 | 0.825
Calu-6 | 0.838
HCC-366 | 1.04
NCI-H1703 | 0.317
NCI-H647 | 0.92
NCI-H2126 | 1.04
H3255 | 0.624
COR-L23 | 0.913
COR-L 105 | 0.804
LOU-NH91 | 0.457
ChaGo-K-1 | 0.775
NCI-H3122 | 1.07
HOP-62 | 0.784
NCI-H1299 | 0.983
NCI-H1563 | 0.842
ABC-1 | 0.265

same assay, conditions: first compound 0.8 µM

Cell Line | relative viability
NCI-H838 | 0.934
NCI-H1651 | 0.933
EBC-1 | 0.602
NCI-H1734 | 0.941
NCI-H2009 | 1.04
LU99A | 1.15
PC-14 | 0.685
LCLC-103H | 1.05
NCI-H596 | 0.893
NCI-H2228 | 0.771
EMC-BAC-2 | 1.01
NCI-H2087 | 0.844
Calu-6 | 0.88
HCC-366 | 0.998
NCI-H1703 | 0.334
NCI-H647 | 0.965
NCI-H2126 | 1.16
H3255 | 0.886
COR-L23 | 0.779
COR-L 105 | 0.734
IA-LM | 0.705
LOU-NH91 | 0.447
ChaGo-K-1 | 1.06
NCI-H3122 | 1.06
HOP-62 | 1.16
NCI-H1299 | 0.91
CAL-12T | 1.01
NCI-H1563 | 0.808
ABC-1 | 0.328

same assay, conditions: first compound 2.53 µM

Cell Line | relative viability
NCI-H838 | 0.861
NCI-H1651 | 0.822
EBC-1 | 0.517
NCI-H1734 | 0.919
NCI-H2009 | 1
LU99A | 1.06
PC-14 | 0.909
LCLC-103H | 1.1
NCI-H596 | 0.853
NCI-H2228 | 0.925
EMC-BAC-2 | 0.99
NCI-H2087 | 0.666
Calu-6 | 0.94
HCC-366 | 1.06
NCI-H1703 | 0.336
NCI-H647 | 0.836
NCI-H2126 | 0.989
H3255 | 0.586
COR-L23 | 0.924
COR-L 105 | 0.563
IA-LM | 0.511
LOU-NH91 | 0.461
ChaGo-K-1 | 0.579
NCI-H3122 | 0.996
HOP-62 | 0.588
NCI-H1299 | 1.04
CAL-12T | 0.719
NCI-H1563 | 0.836
ABC-1 | 0.315

same assay, conditions: first compound 8 µM

Cell Line | relative viability
NCI-H838 | 0.651
NCI-H1651 | 0.987
EBC-1 | 0.282
NCI-H1734 | 0.36
NCI-H2009 | 0.724
LU99A | 1.05
PC-14 | 0.499
LCLC-103H | 0.635
NCI-H596 | 0.74
NCI-H2228 | 0.714
EMC-BAC-2 | 0.927
NCI-H2087 | 0.3
Calu-6 | 0.926
HCC-366 | 0.985
NCI-H1703 | 0.331
NCI-H647 | 0.621
NCI-H2126 | 0.91
H3255 | 0.604
COR-L23 | 0.595
COR-L 105 | 0.456
IA-LM | 0.494
LOU-NH91 | 0.398
ChaGo-K-1 | 0.812
NCI-H3122 | 1.03
HOP-62 | 0.496
NCI-H1299 | 0.885
CAL-12T | 0.954
NCI-H1563 | 0.59
ABC-1 | 0.32

compound: Cc1ccc(NC(=O)c2ccc(CN3CCN(C)CC3)cc2)cc1Nc1nc(-c2cccnc2)cs1 [Masitinib] + C[C@@H](Oc1cc(-c2cnn(C3CCNCC3)c2)cnc1N)c1c(Cl)ccc(F)c1Cl [Crizotinib] (partner 1 µM); assay: as above; details: first compound 0.01 µM
Outline: as §1

Cell Line | relative viability
NCI-H838 | 0.95
NCI-H1651 | 0.802
EBC-1 | 0.191
NCI-H1734 | 0.668
NCI-H2009 | 1.03
LU99A | 0.592
PC-14 | 0.787
LCLC-103H | 0.783
NCI-H596 | 0.964
NCI-H2228 | 0.417
EMC-BAC-2 | 0.655
NCI-H2087 | 0.669
Calu-6 | 0.781
HCC-366 | 0.467
NCI-H1703 | 0.483
NCI-H647 | 1.06

Cell Line | relative viability
LK-2 | 0.248
NCI-H2126 | 1.02
COR-L23 | 0.645
COR-L 105 | 0.657
LOU-NH91 | 0.706
ChaGo-K-1 | 1.33
NCI-H358 | 0.406
NCI-H3122 | 0.26
HOP-62 | 0.659
A549 | 0.666
NCI-H1299 | 0.947
CAL-12T | 0.625
NCI-H1563 | 0.833
NCI-H2170 | 1.38
ABC-1 | 0.965
SK-MES-1 | 0.912

same assay, conditions: first compound 0.03162 µM

Cell Line | relative viability
NCI-H838 | 0.71
NCI-H1651 | 0.89
EBC-1 | 0.205
NCI-H1734 | 0.777
NCI-H2009 | 1.09
LU99A | 0.629
PC-14 | 0.817
LCLC-103H | 1.08
NCI-H596 | 1.1
NCI-H2228 | 0.481
EMC-BAC-2 | 0.648
NCI-H2087 | 0.913
Calu-6 | 0.808
HCC-366 | 0.517
NCI-H1703 | 0.758
NCI-H647 | 0.987
LK-2 | 0.246

Cell Line | relative viability
NCI-H2126 | 1.09
H3255 | 0.767
COR-L23 | 0.607
COR-L 105 | 0.803
LOU-NH91 | 0.683
ChaGo-K-1 | 1.12
NCI-H358 | 0.534
NCI-H3122 | 0.252
HOP-62 | 0.88
A549 | 0.805
NCI-H1299 | 0.989
CAL-12T | 0.472
NCI-H1563 | 0.865
NCI-H1944 | 1.15
NCI-H2170 | 1.18
ABC-1 | 1.17
SK-MES-1 | 1.01

same assay, conditions: first compound 0.1 µM

Cell Line | relative viability
NCI-H838 | 0.828
NCI-H1651 | 0.819
EBC-1 | 0.195
NCI-H1734 | 0.862
NCI-H2009 | 1
LU99A | 0.62
PC-14 | 0.901
LCLC-103H | 0.891
NCI-H596 | 1.06
NCI-H2228 | 0.717
EMC-BAC-2 | 0.845
NCI-H2087 | 0.899
Calu-6 | 0.886
HCC-366 | 0.721
NCI-H1703 | 0.293
NCI-H647 | 1.1
LK-2 | 0.21
NCI-H2126 | 1.05

Cell Line | relative viability
H3255 | 0.711
COR-L23 | 0.768
COR-L 105 | 0.876
IA-LM | 0.871
LOU-NH91 | 0.768
ChaGo-K-1 | 1.51
NCI-H358 | 0.588
NCI-H3122 | 0.306
HOP-62 | 1.09
A549 | 0.823
NCI-H1299 | 1.02
CAL-12T | 0.623
NCI-H1563 | 0.907
NCI-H1944 | 0.59
NCI-H2170 | 1.37
ABC-1 | 1.15
SK-MES-1 | 1.02

same assay, conditions: first compound 0.3162 µM

Cell Line | relative viability
NCI-H838 | 0.651
NCI-H1651 | 0.839
EBC-1 | 0.162
NCI-H1734 | 0.503
NCI-H2009 | 1.02
LU99A | 0.639
PC-14 | 0.723
LCLC-103H | 0.969
NCI-H596 | 0.931
NCI-H2228 | 0.415
EMC-BAC-2 | 0.705
NCI-H2087 | 0.891
Calu-6 | 0.843
HCC-366 | 0.334
NCI-H1703 | 0.492
NCI-H647 | 1.21
LK-2 | 0.217
NCI-H2126 | 1.07

Cell Line | relative viability
H3255 | 0.722
COR-L23 | 0.59
COR-L 105 | 0.686
IA-LM | 0.618
LOU-NH91 | 0.73
ChaGo-K-1 | 1.05
NCI-H358 | 0.473
NCI-H3122 | 0.217
HOP-62 | 1.08
A549 | 0.686
NCI-H1299 | 1.01
CAL-12T | 0.66
NCI-H1563 | 0.814
NCI-H1944 | 0.988
NCI-H2170 | 1.3
ABC-1 | 1.12
SK-MES-1 | 1.02

same assay, conditions: first compound 1 µM

Cell Line | relative viability
NCI-H838 | 0.818
NCI-H1651 | 0.839
EBC-1 | 0.212
NCI-H1734 | 0.615
NCI-H2009 | 0.99
LU99A | 0.527
PC-14 | 0.829
LCLC-103H | 1.03
NCI-H596 | 0.981
NCI-H2228 | 0.669
EMC-BAC-2 | 0.82
NCI-H2087 | 0.951
Calu-6 | 0.73
HCC-366 | 0.444
NCI-H1703 | 0.139
NCI-H647 | 1.21
LK-2 | 0.188
NCI-H2126 | 0.993

Cell Line | relative viability
H3255 | 0.815
COR-L23 | 0.629
COR-L 105 | 0.717
IA-LM | 0.84
LOU-NH91 | 0.712
ChaGo-K-1 | 1.12
NCI-H358 | 0.533
NCI-H3122 | 0.253
HOP-62 | 0.898
A549 | 0.722
NCI-H1299 | 0.96
CAL-12T | 0.464
NCI-H1563 | 0.868
NCI-H1944 | 1.1
NCI-H2170 | 1.11
ABC-1 | 1.18
SK-MES-1 | 0.983
